The numbers were not newly measured in patent US20240249808A1, “Physiologically Based Toxicokinetic (PBTK) Modeling for Implant Toxicology” (Cyprus University of Technology, priority 2021, published 2024), which cites them from elsewhere.

The conditions of this data set: parenteral (non-oral) exposure; prolonged or permanent patient exposure; adverse systemic effects except hypersensitivity; CDRH recommended.

Take `[Ni]` [nickel]: the “Tolerable Intake (TI) value” is 0.5 µg/kg/day.
